Each sequence was assayed on PC9 (assay: cell count fold change with erlotinib, miRNA mimic vs non-targeting control (log2 ratio); higher = more drug-tolerant survivors than NTC). Settings: erlotinib 1 µM; 72 h drug + 72 h drug-free recovery; perturbation: miRNA mimic.

Sequence	cell count fold change with erlotinib
UAGCAGCGGGAACAGUUCUGCAG	-3.68
AAAGUGCUGCGACAUUUGAGCGU	0.0776
CAGUGCAAUGUUAAAAGGGCAU	-3.02
AUCACAUUGCCAGGGAUUUCC	-1.61
UAGUGCAAUAUUGCUUAUAGGGU	-3.19
GUGGCUGCACUCACUUCCUUC	-0.272
ACGGGUUAGGCUCUUGGGAGCU	-2.04
ACUUGUAUGCUAGCUCAGGUAG	-0.236
AGUUUUGCAGGUUUGCAUCCAGC	-0.535
CAGGGAGGUGAAUGUGAU	1.99
UCACAAUGCUGACACUCAAACUGCUGAC	-1.47
GUGAGUCUCUAAGAAAAGAGGA	-1.43
AAAAGCUGGGUUGAGAGGGCGA	-2.14
AACUGGCCCUCAAAGUCCCGCU	-0.145
CUCUCACCACUGCCCUCCCACAG	-1.11
CUUAUGCAAGAUUCCCUUCUAC	-1.68
GAGUGCCUUCUUUUGGAGCGUU	-4.05
CUCUUGAGGGAAGCACUUUCUGU	-1.33
AAAGUAGCUGUACCAUUUGC	-2.51
UGGAUUUCUUUGUGAAUCACCA	-4.07
AGCCUGGAAGCUGGAGCCUGCAGU	-0.167
CAAAGAGGAAGGUCCCAUUAC	-0.517
AAAGACAUAGGAUAGAGUCACCUC	-0.142
UAUGUGCCUUUGGACUACAUCG	-3.93

Sequence	cell count fold change with erlotinib
AAGAUGUGGAAAAAUUGGAAUC	-0.304
UGGGUCUUUGCGGGCGAGAUGA	-0.809
UGAGCCCUGUCCUCCCGCAG	-3.68
CAGUGCAAUAGUAUUGUCAAAGC	-2.72
CACACACUGCAAUUACUUUUGC	-3.13
CAGUUAUCACAGUGCUGAUGCU	-1.92
AAAGUGCUUCUCUUUGGUGGGU	0.279
AGACCUGGCCCAGACCUCAGC	0.672
AGCAGCAUUGUACAGGGCUAUCA	-0.458
CGAAAACAGCAAUUACCUUUGC	-2.67
CAUCUUACCGGACAGUGCUGGA	-0.519
UGAGCCCCUGUGCCGCCCCCAG	-1.44
UGCUUCCUUUCAGAGGGU	-3.13
GUGAGGGCAUGCAGGCCUGGAUGGGG	-0.605
CUCAGUAGCCAGUGUAGAUCCU	-4.13
UUUUGCACCUUUUGGAGUGAA	-3.02
UCCCUGUCCUCCAGGAGCUCACG	-1.84
GGGGAGCUGUGGAAGCAGUA	-2.06
CAGUGCAAUGAUGAAAGGGCAU	-2.17
UAGCAGCACAGAAAUAUUGGC	-1.13
UAAAGAGCCCUGUGGAGACA	-1.03
AGACCAUGGGUUCUCAUUGU	-1.65
UCCUGUACUGAGCUGCCCCGAG	-0.848
AAGGAGCUCACAGUCUAUUGAG	-1.13

Sequence	cell count fold change with erlotinib
UGCGGGGCUAGGGCUAACAGCA	0.647
UAAGGUGCAUCUAGUGCAGAUAG	-4.51
AGGCAGCGGGGUGUAGUGGAUA	1.05
UAGGUUAUCCGUGUUGCCUUCG	-2.37
CUAGUGAGGGACAGAACCAGGAUUC	-2.96
AGGUUACCCGAGCAACUUUGCAU	-0.13
AGGACCUGCGGGACAAGAUUCUU	0.369
UUUGUGACCUGGUCCACUAACC	-2.85
GAAGUGCUUCGAUUUUGGGGUGU	-0.122
UAGGACACAUGGUCUACUUCU	-1.02
UAGAUAAAAUAUUGGUACCUG	-1.41
AGGGGUGGUGUUGGGACAGCUCCGU	-0.171
UUCUCAAGGAGGUGUCGUUUAU	-1.83
CAAGCUCGUGUCUGUGGGUCCG	-1.13
UUAUGGUUUGCCUGGGACUGAG	-0.886
UGUCUUGCAGGCCGUCAUGCA	-4.12
CUGGAGAUAUGGAAGAGCUGUGU	-0.316
GUUGGAGGAUGAAAGUACGGAGUGAU	-2.24
AAAGUGCAUCCUUUUAGAGGUU	-0.881
GAAAGUGCUUCCUUUUAGAGGC	-0.077
AGUCAUUGGAGGGUUUGAGCAG	-3.38
AAAGUGCUUCCUUUUAGAGGG	-0.225
AGACUUCCCAUUUGAAGGUGGC	-0.166
UAACUGGUUGAACAACUGAACC	-0.919

Sequence	cell count fold change with erlotinib
CCUCUGAAAUUCAGUUCUUCAG	-0.736
AGAUCAGAAGGUGAUUGUGGCU	-0.11
UAAGUGCUUCCAUGUUUCAGUGG	-0.141
UGAGAUGAAGCACUGUAGCUC	-1.52
ACAAAGUGCUUCCCUUUAGAGUGU	-0.659
UUUGUUCGUUCGGCUCGCGUGA	-4.05
UAAGUGCUUCCAUGUUUUGGUGA	-1.35
CAACGGAAUCCCAAAAGCAGCUG	-1.27
UGUGCGCAGGGAGACCUCUCCC	-1.77
GUAGAUUCUCCUUCUAUGAGUA	-1.33
AUGGUUCCGUCAAGCACCAUGG	-2.16
UAAGUGCUUCCAUGUUUGAGUGU	-0.491
UGUAGUGUUUCCUACUUUAUGGA	-4.91
UUGUGCUUGAUCUAACCAUGU	-1.88
UGAGUGCCGGUGCCUGCCCUG	-2.45
GUGGGUACGGCCCAGUGGGGGG	0.186
AGUGAAUGAUGGGUUCUGACC	-3.04
AAGUGUGCAGGGCACUGGU	-3.4
AAGUGAUCUAAAGGCCUACAU	-3.48
CUCCAGAGGGAAGUACUUUCU	-1.13
AAGGAGCUUACAAUCUAGCUGGG	-0.343
UGGAAUGUAAGGAAGUGUGUGG	-0.89
AAGCAUUCUUUCAUUGGUUGG	-1.49
AGGGGUGCUAUCUGUGAUUGA	0.941

Sequence	cell count fold change with erlotinib
GAUGAGCUCAUUGUAAUAUGAG	-2.97
UGGAAGACUAGUGAUUUUGUUGU	-2.71
UCCAGCAUCAGUGAUUUUGUUG	-2.81
AGGUUGUCCGUGGUGAGUUCGCA	-0.399
AAAGCGCUUCCCUUCAGAGUG	-1.78
ACCCUAUCAAUAUUGUCUCUGC	-3.19
CUGAAGUGAUGUGUAACUGAUCAG	-3.44
AAAGUGCUUCCUUUUAGAGGGU	0.14
UGGGCGUAUCUGUAUGCUA	-0.274
UUCUCGAGGAAAGAAGCACUUUC	-1.6
AGGGUGUUUCUCUCAUCUCU	-1.29
UCUCUGGGCCUGUGUCUUAGGC	0.808
GGGCGACAAAGCAAGACUCUUUCUU	-2.38
CAAAGCGCUCCCCUUUAGAGGU	-0.185
CAGUGCAAUGAUAUUGUCAAAGC	-2.68
UGACAACUAUGGAUGAGCUCU	-1.88
UCACUCCUCUCCUCCCGUCUU	-4.11
AUGUAGGGCUAAAAGCCAUGGG	-1.51
UUGCAGCUGCCUGGGAGUGACUUC	-2.6
GGUUUGGUCCUAGCCUUUCUA	0.113
CGGGUCGGAGUUAGCUCAAGCGG	-0.802
GAUUGCUCUGCGUGCGGAAUCGAC	-1.68
GAAAGCGCUUCUCUUUAGAGG	-0.525
GUGUGCGGAAAUGCUUCUGCUA	-2.43

Sequence	cell count fold change with erlotinib
UACCCAGAGCAUGCAGUGUGAA	-2.53
GAAGGCGCUUCCCUUUAGAGCG	-2.22
CCAGUAUUAACUGUGCUGCUGA	-1.92
UUGGGAUCAUUUUGCAUCCAUA	0.519
AGGUUGGGAUCGGUUGCAAUGCU	-0.41
AUUCCUAGAAAUUGUUCAUA	0.458
GGUGCAGUGCUGCAUCUCUGGU	-1.52
UAGGCAGUGUCAUUAGCUGAUUG	-1.83
AACCCGUAGAUCCGAUCUUGUG	-0.33
UAGUACCAGUACCUUGUGUUCA	-4.15
AGAGCUUAGCUGAUUGGUGAAC	-3.36
UGGAGGAGAAGGAAGGUGAUG	0.943
CCUCUGGGCCCUUCCUCCAG	0.0835
AUUCUGCAUUUUUAGCAAGUUC	-0.25
UGGAGAGAAAGGCAGUUCCUGA	-1.98
CAACCUGGAGGACUCCAUGCUG	-0.199
UGGUUGUAGUCCGUGCGAGAAUA	1.81
AAUCAUACAGGGACAUCCAGUU	-1.33
AGCUGGUGUUGUGAAUCAGGCCG	-0.131
UGAGGGGCAGAGAGCGAGACUUU	-0.476
UACUUGGAAAGGCAUCAGUUG	-0.495
UUACAGUUGUUCAACCAGUUACU	-2.68
CUACAAAGGGAAGCACUUUCUC	-2.75

Source: the supplement of paper PMC4976141
